Results taken from a melting point compilation (Tetko et al.; mined from patent text by program, amines drawn as free bases though some values may be those of a salt).

| Compound | melting point |
| --- | --- |
| Oc1ccc2cc(COC=C3C4CC5CC(C4)CC3C5)ccc2c1 | 133 to 140 °C |
| Cc1noc(NS(=O)(=O)c2ccccc2-c2ccc(-c3ccon3)cc2)c1C | 85 to 90 °C |
| CC(C)Nc1nc2cc(F)c(F)cc2n1[C@H]1O[C@@H](CO)[C@H](O)[C@@H]1O | 156 to 158 °C |
| Cc1cccc(-c2nc(C3CCN(C)CC3)sc2-c2ccnc(NC(=O)c3ccccc3)c2)c1 | 151 to 152 °C |
| O=C(O)c1c(Cl)cc(Cl)nc1Cl | 138 to 141 °C |
| NC(=O)c1ncn2c1nc(N1CCOCC1)c1ccccc12 | > 300 °C |
| Oc1ccc(-c2ncc3ncc(Nc4ncccn4)cc3n2)cc1 | > 268 °C |
| Cc1cc(Cl)ccc1NC(=S)N(C)OCC(=O)O | 110 to 113 °C |
| CCCCCCCCCCCCOc1ccccc1O | 46 °C |
| COc1ccc(/C=C/c2ncccc2C(=O)O)cc1 | 230 to 233 °C |
| COc1ccc(C2(C#Cc3ccnc(S(C)(=O)=O)n3)CCC(=O)CC2)cc1OC1CCCC1 | 60 to 64 °C |
| C[N+]1([O-])CC(c2ccccn2)C(=O)c2cc(Cl)ccc21 (stereo unspecified) | 135 to 137 °C |
| CCOC(=O)c1cc2ccc(Cl)c(N(C)S(=O)(=O)c3cccs3)c2[nH]1 | 156 to 157 °C |
| O=C(OCC1CC1)c1ncn2c1[C@@H]1CCCN1C(=O)c1c(Br)cccc1-2 | 135 to 136 °C |
| CCS(=O)(=O)c1ccc(-n2cncc2-c2ccc([N+](=O)[O-])cc2)cc1 | 190 to 194 °C |
| C[C@H]1C(=O)OCN1C(=O)OCc1ccccc1 | 89 to 91 °C |
| CCCCCCCCCCCCCCCCCCN(CCCCCCCCCCCCCCCCCC)c1ccc(C=Cc2ccc(S(C)(=O)=O)cc2)cc1 | 75 to 76 °C |
| CC(C)(C)OC(=O)c1ncn2c1[C@@H]1CCCN1C(=O)c1c(I)cccc1-2 | 241 to 242 °C |
| CCc1nc(=O)c(CCC(=O)O)c(C)n1Cc1ccc(-c2ccccc2-c2nnn[nH]2)cc1 | 317 to 322 °C |
| O=C1CCC(N2Cc3cc(CNC(=O)Nc4cccc5ccccc45)ccc3C2=O)C(=O)N1 (stereo unspecified) | 250 to 252 °C |
| Cc1cn(-c2ccc(NC(=O)c3ccc(Cl)c(C#Cc4ccc(NC5CC5)nn4)c3)cc2C(F)(F)F)cn1 | 150 to 152 °C |
| CC(=O)C=CS(=O)(=O)N1C=C(Cl)C=NC1 | 95 °C |
| N#Cc1c(N)oc2ccc(Cl)cc2c1=O | 340 °C |
| C=CCNC(=O)Nc1nc2nc(NCCCN3CCN(C)CC3)ncc2cc1-c1c(Cl)cccc1Cl | 104 to 108 °C |
| NS(=O)(=O)c1ccc(-n2nc(C(F)(F)F)cc2-c2nc3ccc(F)cc3s2)cc1 | 260 to 261 °C |
| CC(C)Cc1cc(C(=O)NCCc2ccncc2)ccc1OCc1ccc(F)cc1 | 112 °C |

| Compound | melting point |
| --- | --- |
| COC(=O)c1ccccc1-c1cc(-c2ccccn2)on1 | 54 to 57 °C |
| CCN1c2ncccc2C(=O)N(C)c2ccc(O)nc21 | 215 to 218 °C |
| Cc1cc(C(=O)NCO)ncc1C(c1c(F)ccc(F)c1F)S(=O)(=O)CCC(C)(F)F (stereo unspecified) | 161 to 162 °C |
| Cc1ccc(-c2cc3cc(-c4ccccc4)ccc3o2)cc1 | 156 to 158 °C |
| CCOC(=O)c1cccc(-c2ccc(F)c3cc(CO)sc23)c1 | 89 to 90 °C |
| CCOC(=O)C(=CNc1ccc(F)cc1)C(=O)c1ccc(Cl)cc1Cl | 108 to 111 °C |
| CCOC(=O)C(=CNc1ccc(OC)c(C)n1)C(=O)OCC | 109 to 110 °C |
| CCCCCCn1c(=O)n(C)c(=O)c2cnn(C)c21 | 106 to 107 °C |
| CC1CCCCN1CCNc1ccnc2cc(Cl)ccc12 (racemic) | 133 to 134 °C |
| CCNCC1CCN(c2c(F)cc3c(=O)c(C(=O)O)cn4c3c2OCC4CC)C1 (stereo unspecified) | 221 to 224 °C |
| CCOC(=O)/C=C/c1ccc2cc(OCc3ccccc3)ccc2c1 | 110 to 112 °C |
| Nc1nonc1-c1nc2ccccc2n1CC(=O)c1ccc(Cl)c([N+](=O)[O-])c1 | 198 to 200 °C |
| Nc1ncc(Br)cc1Cl | 94 to 96 °C |
| CCOC(=O)COc1cc(-n2nc(C)c(Cl)c2C)c(F)cc1Cl | 101 to 104 °C |
| CCNC(=NS(=O)(=O)c1ccc(Cl)cc1)N1CC(c2ccccc2)C(c2ccc(Cl)cc2)=N1 (single isomer, unassigned; (-)) | 172 to 175 °C |
| COC(=O)NNc1cc(C)cc2c1OC(C)C2 (stereo unspecified) | 82 to 84 °C |
| COC(=O)C(N)(CO)Cc1c[nH]c2ccccc12 (racemic) | 148 to 149 °C |
| CCOC(=O)c1cnn2c1nc(N)c1cnc3c(cnn3CC)c12 | 331 to 332 °C |
| COc1ccc(CNc2nc(N3CCC(C(=O)O)CC3)nc3sc(C(F)(F)F)cc23)cc1OC | 203 °C |
| Cc1ccc(NC(=O)c2ccc(C(=O)Nc3ccccc3N)s2)cc1Nc1nc(-c2cccnc2)cs1 | 242 °C |
| COc1c(Br)c(O)c(Br)c2nc(-c3ccc(O)cc3)oc12 | 246 to 248 °C |
| CCOC(=O)c1sc(-c2ccc(C(F)(F)F)cc2)nc1COC(C)=O | 82 °C |
| Cc1nnc2nc(-c3cccc(C(F)(F)F)c3)cnn12 | 230 to 233 °C |
| CCCCCCN(O)C(=O)N(C)C | 19 to 20 °C |
| COc1ccc(C2CCOCC2)cc1N | 102 to 103 °C |
| CN(CCNc1ccc2c3c(c4c(OCc5ccccc5)ccc(OCc5ccccc5)c4cc13)NN2CCN(CCO)Cc1ccccc1)Cc1ccccc1 | 147 to 149 °C |

| Compound | melting point |
| --- | --- |
| COc1cccc2c(=O)[nH]nc(C)c12 | 257 to 260 °C |
| CC(C)[Si](O[C@@H](CO)[C@H](CC1CCCCC1)NC(=O)OC(C)(C)C)(C(C)C)C(C)C | 61 to 63 °C |
| COc1ccn2nc(SCc3ccccc3)nc2n1 | 126 to 128 °C |
| O=Cc1c(-c2ccccc2Cl)ccc2c1OCO2 | 84 to 86 °C |
| O=C(O)c1ccc(Cn2c(=O)sc3ccc(C#CCc4ccccc4)cc3c2=O)cc1 | 240 to 242 °C |
| N#Cc1cccc(C2C=C(C(F)(F)F)NC3=C2C(=O)CCC3)c1 (stereo unspecified) | 182 to 183 °C |
| CCCCCCCc1ccnc2c(O)cccc12 | 92 to 93.5 °C |
| Cc1ccc(-c2nc3c(C)cccc3c(=O)[nH]2)c(Cl)c1 | 234 °C |
| CC(C)OC(=O)C1=C2SCC(=CC(=O)N(C)C)N2CC1 | 159 to 160 °C |
| Cc1c(C)c2c(c(C)c1O)C(c1ccc(N3CCOCC3)cc1)C(C)(C)O2 (stereo unspecified) | 91 to 93 °C |
| CC(=O)CS(=O)(=O)c1cccc2ccccc12 | 65 °C |
| COc1ccc(C2(CCN3CCC(C(N)=O)(c4ccccc4)CC3)CCN(C(=O)c3cc(OC)c(OC)c(OC)c3)C2)cc1OC (stereo unspecified) | 60 to 62 °C |
| CCOC(=O)c1cc(-c2ccc(OC)cc2)[nH]c1N | 141 to 142 °C |
| CC(C)(C(=O)O)c1ccc(C(=O)CCCN2CCC(=C3c4ccccc4CCc4ccccc43)CC2)cc1 | 122 to 125 °C |
| O=C(O)CCCCCCCCc1cccs1 | 32 to 33 °C |
| COc1ccccc1Oc1c(OC)nn(C)c1NS(=O)(=O)c1ccc(C(C)(C)C)cc1 | 188 °C |
| CCCNC(=O)c1c(OCc2ccc(-c3ccccc3-c3nnn[nH]3)cc2)cc(C)nc1C | 196 to 198 °C |
| CC(C)(C)N1CC(COc2cccc3c(S)nccc23)OC1=O (stereo unspecified) | 264 to 269 °C |
| CN1Cc2c(-c3noc(CCl)n3)ncn2-c2ccc(F)c(Cl)c2C1=O | 215 to 218 °C |
| Cn1nc2c(c1-c1ccc(Cl)cc1)Cc1ccccc1-2 | 131 to 133 °C |
| Cc1nc(CCOc2ccc([N+](=O)[O-])cc2)c(C)o1 | 97 to 98 °C |
| N#Cc1ccc2c3c(cc([N+](=O)[O-])c2c1)NCC3CCl (stereo unspecified) | 237 to 238 °C |
| CCOC(=O)c1ncn2c1CN(C)C(=O)c1c(Cl)cccc1-2 | 229 to 230 °C |
| CC(=O)Nc1ccc(Oc2ccc3c(c2)OCC(=O)N3)cc1 | 230 to 232 °C |
| CCc1cccc(CSC)c1NC(=O)CC1c2ccccc2Oc2ccccc21 | 122 to 123 °C |
| N#Cc1cc(NC(=O)c2cc3ccccc3o2)ccc1OC1CCN(Cc2ccccc2)CC1 | 175 °C |

| Compound | melting point |
| --- | --- |
| O=Cc1cn(C2CCCCC2)nc1-c1ccc([N+](=O)[O-])o1 | 150 to 151 °C |
| NCCNc1cc(NCCO)c(Cl)cc1[N+](=O)[O-] | 160 °C |
| C#CCn1ncc(=O)[nH]c1=O | 148 °C |
| Nc1c(Br)cc(Br)cc1S(=O)(=O)C(F)F | 84 to 88 °C |
| COc1ccc(C(=O)Nc2cc(NC(=O)c3ccc(N(C)CCCN(C)C)cc3)ccc2C)cc1OC | 164 to 165 °C |
| COc1cc(C(=O)Nc2ccc3c(c2)CN(C)CC3)cc(OC)c1OC | 158 °C |
| CCCOc1nc(N[C@@H](C)Cc2ccccc2)c2cnn(-c3ccccc3)c2n1 | 134 to 136 °C |
| CNC(=O)Nc1cc(C(C)(C)COC)on1 | 65 to 67 °C |
| N#CCc1cc(Cl)c(C(=O)c2ccc(Cl)cc2)[nH]1 | 194 to 197 °C |
| CCCN1c2ccc3c(c2CC1C(N)=O)CC(N)CC3 (single isomer, unassigned; (+)) | 230 °C |
| O=[N+]([O-])c1ccccc1OCC(O)CO (stereo unspecified) | 96 °C |
| Cn1ncc(/C=C\C(=O)O)c1-c1ccc(F)cc1 | 205 to 206 °C |
| CCN1CCc2ccc(Nc3ncc(Cl)c(NCCC(=O)NC)n3)cc2CC1 | 206 °C |
| CCCNc1ccc(-c2nc(=O)c3ccccc3s2)cn1 | 210 to 211 °C |
| O=CNCC1CCCc2cc(NS(=O)(=O)c3cccc(F)c3)ccc21 (stereo unspecified) | 143 to 144 °C |
| Fc1ccc(NC(=S)NN(c2ccccc2)c2ccccc2)cc1 | 200 °C |
| NS(=O)(=O)c1ccc(NC(=O)NC2CCCC2)cc1 | 224 to 226 °C |
| O=C1CCCc2c1c1cccc(F)c1n2Cc1ccc(F)cc1 | 177 to 178 °C |
| CC(=O)C(=CN(C)C)C(=O)c1ccccc1 | 81 to 83 °C |
| O=C1CCC(N2C(=O)c3cccc(OCc4ccc(CN5CCc6ncccc6C5)cc4)c3C2=O)C(=O)N1 (stereo unspecified) | 165 to 167 °C |
| COC(=O)c1ccccc1-c1ncc(-c2cccc(C(F)(F)F)c2)o1 | 92.5 to 94 °C |
| CC(C)Cn1c(=O)n(C)c(=O)c2cc(Cc3ccccc3)sc21 | 72 to 73 °C |
| CC(C)(C)c1ccnc(-c2cc(C(C)(C)C)ccn2)c1 | 159 to 160 °C |
